Data: publication PMC7056829, “Reversal Effect of ALK Inhibitor NVP-TAE684 on ABCG2-Overexpressing Cancer Cells” (Frontiers in Oncology, 2020)

How the values were obtained:
[1] = target: T1, ABCG2 (Homo sapiens, UniProt Q9UNQ0)
T1 sequence (Q9UNQ0 1-655): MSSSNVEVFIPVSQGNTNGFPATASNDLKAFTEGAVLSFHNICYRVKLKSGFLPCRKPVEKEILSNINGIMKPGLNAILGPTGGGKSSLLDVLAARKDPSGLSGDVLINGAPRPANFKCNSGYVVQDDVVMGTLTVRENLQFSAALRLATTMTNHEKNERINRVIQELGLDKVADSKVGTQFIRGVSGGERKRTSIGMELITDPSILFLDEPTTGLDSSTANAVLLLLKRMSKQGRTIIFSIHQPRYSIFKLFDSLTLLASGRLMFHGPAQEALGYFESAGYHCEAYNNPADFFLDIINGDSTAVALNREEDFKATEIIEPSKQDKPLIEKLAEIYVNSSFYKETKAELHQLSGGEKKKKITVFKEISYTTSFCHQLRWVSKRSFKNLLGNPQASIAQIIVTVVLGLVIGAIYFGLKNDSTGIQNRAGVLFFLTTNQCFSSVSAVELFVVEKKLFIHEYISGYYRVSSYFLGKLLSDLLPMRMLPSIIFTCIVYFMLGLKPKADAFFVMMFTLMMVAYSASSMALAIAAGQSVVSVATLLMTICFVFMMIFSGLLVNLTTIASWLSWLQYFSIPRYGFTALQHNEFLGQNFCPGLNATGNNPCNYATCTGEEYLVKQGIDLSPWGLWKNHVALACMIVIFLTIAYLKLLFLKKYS

[2] = target: T1, ABCG2; assay: ATPase stimulation in ABCG2-overexpressing membrane vesicles; type: biochemical; set-up: ABCG2 membrane vesicles that overexpressed ABCG2

SMILES	[3H]-mitoxantrone accumulation and efflux in NCI-H460/MX20 versus parental NCI-H [1]	EC50 [2] [nM]
O=C1c2c(O)ccc(O)c2C(=O)c2c(NCCNCCO)ccc(NCCNCCO)c21 [Mitoxantrone]	NVP-TAE684 significantly reduced the extrusion of [^3H]-mitoxantrone in NCI-H460/MX20 cells	
COc1cc(N2CCC(N3CCN(C)CC3)CC2)ccc1Nc1ncc(Cl)c(Nc2ccccc2S(=O)(=O)C(C)C)n1 [NVP-TAE684]		91
